According to US4533541A, “Tin-117m-labeled stannic (Sn^4+) chelates” (The United States of America as represented by the United …, priority 1983, dated 1985):
Where two headings read alike, the source gives them in different places.

Settings: mouse, in vivo; for Blood, % Dose per Gram / Bone, % Dose per Gram / Kidneys, % Dose per Gram / Liver, % Dose per Gram / % Dose remaining in whole body: iv
Method: Tissue distribution studies were done in normal BNL mice. All animals were injected with the appropriate radiopharmaceutical intravenously. A number of time periods up to 7 days after injection were used to collect the data.
Comparative studies were conducted using Sn^2+ chloride (pH 2 and 7), Sn^4+ chloride (pH 2), and Sn(2+ and 4+)-labeled chelates (MDP, DTPA, EHDP, and PYP).
Tissue distribution in mice of Sn(2+ and 4+) chloride (pH 2 and 7), and of the stannous and stannic chelates of MDP, DTPA, PYP, and EHDP is shown in Table 1.

## O.O.O=P([O-])([O-])CP(=O)([O-])[O-].[99Tc+4] [^99m Tc-MDP]
30 min
  Ratio, bone to Blood: 29
  Ratio, bone to Kidney: 8.1
  Ratio, bone to Liver: 8.4
  Ratio, bone to Muscle: 93
  % Dose remaining in whole body: 33.5 % Dose
180 min
  Ratio, bone to Blood: 85
  Ratio, bone to Kidney: 11
  Ratio, bone to Liver: 13
  Ratio, bone to Muscle: 270
  % Dose remaining in whole body: 30.2 % Dose
1440 min
  Ratio, bone to Blood: 205
  Ratio, bone to Kidney: 18
  Ratio, bone to Liver: 14
  Ratio, bone to Muscle: 375
  % Dose remaining in whole body: 22.5 % Dose
0.5 h
  Blood, % Dose per Gram: 0.41 % Dose per Gram
  Bone, % Dose per Gram: 11.80 % Dose per Gram
  Kidneys, % Dose per Gram: 1.46 % Dose per Gram
  Liver, % Dose per Gram: 1.41 % Dose per Gram
3 h
  Blood, % Dose per Gram: 0.14 % Dose per Gram
  Bone, % Dose per Gram: 12.30 % Dose per Gram
  Kidneys, % Dose per Gram: 1.11 % Dose per Gram
  Liver, % Dose per Gram: 0.97 % Dose per Gram
24 h
  Blood, % Dose per Gram: 0.05 % Dose per Gram
  Bone, % Dose per Gram: 10.30 % Dose per Gram
  Kidneys, % Dose per Gram: 0.57 % Dose per Gram
  Liver, % Dose per Gram: 0.73 % Dose per Gram
